Test results: article PMC8620685, “Effect of Selected Silyl Groups on the Anticancer Activity of 3,4-Dibromo-5-Hydroxy-Furan-2(5H)-One Derivatives” (Pharmaceuticals, 2021)

Tested on: survivin
Experiment: Human Apoptosis Proteome Profiler array, survivin
Format: cell-based
Settings: HCT-116, 1 h exposure, 2 × IC50
Text: To explore in detail the molecular mechanism of apoptosis induction by compounds 3b and 3c, we employed Human Apoptosis Proteome Profiler arrays that allow quantification of apoptosis-related biomarkers (Figure 3C). […] Collectively, it can be concluded that silyl derivative 3b promotes cell death in HCT 116 cells by the alteration of expression levels of survivin and activation of caspase-3.
The Human Apoptosis Array Kit (R&D Systems, Abingdon, UK) was used to determine the levels of expression of apoptosis-related proteins. 2.5 × 10^5 HCT 116 wt cells were seeded on 100 mm dishes (Nunc, ThermoFisher, Waltham, MA, USA) and allowed to attach for 24 h. Then the medium was replaced with tested compounds at a concentration corresponding 2 × IC50 value and the cells were incubated in 37 °C. After 60 min the cells were lysed and the lysates were clarified by centrifugation for 30 min at 14,000× g. The total protein concentration was measured using the Protein Quantification Kit-Rapid (Sigma-Aldrich, Taufkirchen, Germany) according to the manufacturer’s instruction. The next steps followed instructions from the manufacturer of the Human Apoptosis Array Kit. The membranes were then scanned in the G:Box trans illuminator (Syngene, Cambridge, UK) and the protein expression levels were quantified by densitometric analysis using ImageJ software.

For CC(C)[Si](OC1OC(=O)C(Br)=C1Br)(C(C)C)C(C)C (stereo not shown) [Compound 3b, 3,4-Dibromo-5-(triisopropylsilyloxy)-furan-2(5H)-one], the survivin expression was “down-regulation of survivin”.
